Source: US8759519B2, “Mono-hydrochloric salts of an inhibitor of histone deacetylase” (Janssen Pharmaceutica NV, priority 2007, dated 2014)
Where a name gives a salt, the structure may show the parent alone.

Experiments:
Assay type in all cases: physicochemical
[1] = Adsorption/desorption of water (dynamic vapor sorption)
Protocol: The ADS/DES data were obtained using a SMS dynamic vapor sorption model DVS-1 and the weight change was recorded with tespect to the atmospheric humidity at 25° C. The weight of the samples was about 17 mg of Form I and 24 mg of Form II. The samples were dried for 60 min under dry nitrogen. The equilibrium was lower or equal to 0.01%/min. for minimal 15 min and maximal 60 min. The data interval was 0.05% or 2.0 min.
Relative Humidity (%) measurement points were:
The adsorption and desorption of water at 25° C. at different conditions of relative humidity was investigated on 17 mg Form I.
The weight change as a function of relative humidity was registered.
The adsorption and desorption of water at 25° C. at different conditions of relative humidity was investigated on about 24 mg Form II

[2] = Chemical stability after storage in open conditions (HPLC, visual inspection); details: for HPLC Sum of impurities / Appearance: hydrochloride
Protocol: Form I was stored in different open conditions for periods of 1, 4 and 8 weeks.
These conditions are 40° C./75% RH, 50° C., RT/<5% RH, RT/56% RH, RT/75% RH and 0.3 da ICH light.
The compounds were analyzed after storage by HPLC and by visual inspection.
Form II was stored in different open conditions for periods of 1, 4 and 8 weeks. These conditions were 40° C./75% RH, 50° C., RT/<5% RH, RT/56% RH, RT/75% RH and 0.3 da ICH light.

[3] = Crystallographic stability after storage in open conditions (TGA, DSC, XRPD, IR); set-up: key to XRD / IR: ~Ref: identical with reference; Cryst.: crystalline; details: for IR / XRD: Table G
Protocol: The stability of the crystal structure of Form I was studied after storage of the compound in open conditions for a period of six weeks at room temperature (RT) under <5%, 56% and 75% relative humidity (RH), 50° C. and 40° C./75% RH.
The samples are analyzed with thermogravimetry (TGA), differential scanning calorimetry (DSC), X-ray powder diffraction (XRPD) and infrared spectroscopy (IR).
The stability of the crystal structure of Form II was studied after storage of the compound in open conditions for a period of six weeks at room temperature (RT) under <5%, 56% and 75% relative humidity (RH), 50° C. and 40° C./75% RH.
The samples were analyzed with thermogravimetry (TGA), differential scanning calorimetry (DSC), X-ray powder diffraction (XRPD) and infrared spectroscopy (IR).

[4] = 0 days (reference), hydrochloride
[5] = extra endothermic signal, six weeks open, 40° C./75% RH
[6] = extra endothermic signal, six weeks open, 50° C.
[7] = extra endothermic signal, six weeks open, RT/56% RH
[8] = extra endothermic signal, six weeks open, RT/75% RH
[9] = extra endothermic signal, six weeks open, RT/<5% RH
[10] = six weeks open, 40° C./75% RH, hydrochloride
[11] = six weeks open, 50° C., hydrochloride
[12] = six weeks open, RT/<5% RH, hydrochloride

With `Cn1cc(CNCC2CCN(c3ncc(C(=O)NO)cn3)CC2)c2ccccc21` [Form II, N-hydroxy-2-[4-[[[(1-methyl-1H-indol-3-yl)methyl]amino]methyl]-1-piperidinyl]-5-pyrimidinecarboxamide hydrochloride] the “drying during the desorption cycle” value ([1]; 25° C.) was “dries completely”, the hygroscopic behavior ([1]; 25° C., adsorption/desorption test, hydrochloride) was “hygroscopic” and the “water adsorbed at high relative humidity” value ([1]; 25° C., high relative humidity, hydrochloride) was “up to 9.6%”. The “crystallinity during the adsorption/desorption test” value ([1]; 25° C., hydrochloride) was “remains crystalline”, the “weight loss during the initial drying step” value ([1]; dried under dry nitrogen) was 1.67% and the HPLC Sum of impurities ([2]; 0.3 da ICH light (1 week)) was 7.42%. For the same compound, the HPLC Sum of impurities ([2]; 40° C./75% RH, 1 week) was 4.96%, the Appearance ([2]; 40° C./75% RH, 4 weeks) was “pink” and the HPLC Sum of impurities ([2]; 40° C./75% RH, 4 weeks) was 4.99%. For the same compound, the Appearance ([2]; 40° C./75% RH, 8 weeks) was “pink”, the HPLC Sum of impurities ([2]; 40° C./75% RH, 8 weeks) was 4.9% and the Appearance ([2]; 50° C., 1 week) was “white”. For the same compound, the HPLC Sum of impurities ([2]; 50° C., 1 week) was 4.96%, the Appearance ([2]; 50° C., 4 weeks) was “white” and the HPLC Sum of impurities ([2]; 50° C., 4 weeks) was 5%. It also gave an HPLC Sum of impurities ([2]; 50° C., 8 weeks) of 4.9%, an HPLC Sum of impurities ([2]; RT/56% RH, 4 weeks) of 5.05% and an HPLC Sum of impurities ([2]; RT/56% RH, 8 weeks) of 4.94%. For the same compound, the HPLC Sum of impurities ([2]; RT/75% RH, 4 weeks) was 5.03%, the HPLC Sum of impurities ([2]; RT/75% RH, 8 weeks) was 4.97% and the Appearance ([2]; RT/<5% RH, 4 weeks) was “white”. The HPLC Sum of impurities ([2]; RT/<5% RH, 4 weeks) was 5.1%, the Appearance ([2]; RT/<5% RH, 8 weeks) was “white” and the HPLC Sum of impurities ([2]; RT/<5% RH, 8 weeks) was 4.98%. The Appearance ([2]; Reference (1 week)) was “white”, the HPLC Sum of impurities ([2]; Reference (1 week)) was 5.04% and the discoloration ([2]; after storage in 0.3 da ICH light) was “white to or orange-brown”. The discoloration ([2]; after storage in humid conditions RT/56% RH, RT/75% RH and 40° C./75% RH and elevated temperature 50° C.) was “white to pink”, the “sensitivity towards light (sum of impurities)” value ([2]; storage in 0.3 da ICH light conditions) was “showed a sensitivity towards light” and the “DSC Max (° C.)” value ([3]; 0 days (reference)) was “±198 °C”. The TGA <170° C. ([3]; 0 days (reference)) was 0.4%, the “App (appearance)” value [3, 4] was “white” and the TGA <100° C. [3, 4] was 3.3%. The IR ([3]; six weeks open, 40° C./75% RH) was “≠Ref”, the XRD ([3]; six weeks open, 40° C./75% RH) was “≠Ref” and the IR ([3]; six weeks open, 50° C.) was “~Ref”. For the same compound, the XRD ([3]; six weeks open, 50° C.) was “~Ref”, the IR ([3]; six weeks open, RT/56% RH) was “≠Ref” and the XRD ([3]; six weeks open, RT/56% RH) was “≠Ref”. The IR ([3]; six weeks open, RT/75% RH) was “≠Ref”, the XRD ([3]; six weeks open, RT/75% RH) was “≠Ref” and the IR ([3]; six weeks open, RT/<5% RH) was “~Ref”. The XRD ([3]; six weeks open, RT/<5% RH) was “~Ref”, the “DSC Extra (° C.)” value ([3]; extra endothermic signal (solvent evaporation), 0 days (reference)) was 71.5 °C and the “DSC Extra, heat of the signal” value ([3]; extra endothermic signal, 0 days (reference)) was “(78 J/g)”. The “DSC Extra (° C.)” value [3, 5] was 83.9 °C, the “DSC Extra, heat of the signal” value [3, 5] was “(151 J/g)” and the “DSC Extra (° C.)” value [3, 6] was 74.6 °C. For the same compound, the “DSC Extra, heat of the signal” value [3, 6] was “(66 J/g)”, the “DSC Extra (° C.)” value [3, 7] was 87.1 °C and the “DSC Extra, heat of the signal” value [3, 7] was “(144 J/g)”. The “DSC Extra (° C.)” value [3, 8] was 85.2 °C, the “DSC Extra, heat of the signal” value [3, 8] was “(153 J/g)” and the “DSC Extra (° C.)” value [3, 9] was 75.1 °C. The “DSC Extra, heat of the signal” value [3, 9] was “(68 J/g)”, the “crystallographic stability (conclusion)” value ([3]; six weeks open storage under the different conditions, hydrochloride) was “crystallographically not stable” and the “DSC Max (° C.)” value ([3]; six weeks open, 40° C./75% RH) was “±198 °C”. For the same compound, the TGA <170° C. ([3]; six weeks open, 40° C./75% RH) was 0.2%, the “App (appearance)” value [3, 10] was “pink” and the TGA <100° C. [3, 10] was 6%. For the same compound, the “DSC Max (° C.)” value ([3]; six weeks open, 50° C.) was “±198 °C”, the TGA <170° C. ([3]; six weeks open, 50° C.) was 0.2% and the “App (appearance)” value [3, 11] was “white”. The TGA <100° C. [3, 11] was 2.1%, the “DSC Max (° C.)” value ([3]; six weeks open, RT/56% RH) was “±198 °C” and the TGA <170° C. ([3]; six weeks open, RT/56% RH) was 0.3%. For the same compound, the TGA <100° C. ([3]; six weeks open, RT/56% RH, hydrochloride) was 5.2%, the “DSC Max (° C.)” value ([3]; six weeks open, RT/75% RH) was “±198 °C” and the TGA <170° C. ([3]; six weeks open, RT/75% RH) was 0.3%. For the same compound, the TGA <100° C. ([3]; six weeks open, RT/75% RH, hydrochloride) was 4.9%, the “DSC Max (° C.)” value ([3]; six weeks open, RT/<5% RH) was “±198 °C” and the TGA <170° C. ([3]; six weeks open, RT/<5% RH) was 0.4%. For the same compound, the “App (appearance)” value [3, 12] was “white” and the TGA <100° C. [3, 12] was 1.9%.
